Data taken from patent EP4631938A1, “NITROGEN-CONTAINING HETEROCYCLE WITH SEROTONIN RECEPTOR-BINDING ACTIVITY AND CARBOCYCLIC DERIVATIVE” (Shionogi & Co., Ltd, priority 2022, dated 2024).
Read-outs that look alike come from different tables or passages of the source.

Legend:
[1] = biological target: T1, human recombinant 5-HT2C receptor (Homo sapiens, UniProt P28335); assay: Test Example 2: 5-HT2C receptor binding inhibition test ([3H]-Mesulergine; non-specific ligand Serotonin HCl); details: human serotonin 5-HT2C receptor binding activity
T1 construct: expressed in transfected cells; host or cells: Jump-In HEK cells (membrane preparation)
T1 sequence (P28335 33-458): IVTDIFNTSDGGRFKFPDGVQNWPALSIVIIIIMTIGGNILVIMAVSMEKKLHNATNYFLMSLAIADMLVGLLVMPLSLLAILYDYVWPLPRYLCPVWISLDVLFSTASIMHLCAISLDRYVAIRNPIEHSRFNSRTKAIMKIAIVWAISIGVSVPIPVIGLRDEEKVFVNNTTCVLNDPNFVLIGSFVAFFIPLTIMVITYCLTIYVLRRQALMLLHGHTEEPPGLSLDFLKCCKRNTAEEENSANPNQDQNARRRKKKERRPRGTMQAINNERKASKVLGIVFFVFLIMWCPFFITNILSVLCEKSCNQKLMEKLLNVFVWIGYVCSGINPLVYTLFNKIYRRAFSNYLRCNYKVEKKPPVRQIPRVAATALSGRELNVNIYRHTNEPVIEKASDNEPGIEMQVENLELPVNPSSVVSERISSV
Outline: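 Ki values come from dose-response curves of [3H]-mesulergine displacement from human 5-HT2C membranes after 2 h at 37°C, scored by scintillation counting of filter-bound radioactivity. Serotonin HCl (500 µmol/L) set non-specific binding; Kd per membrane lot was taken from Scatchard plots.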

[2] = biological target: T2, human recombinant 5-HT2A receptor (Homo sapiens, UniProt P28223); assay: Test Example 1-2: 5-HT2A receptor binding inhibition test ([3H]-Ketanserin; non-specific ligand Ketanserin)
T2 construct: expressed in transfected cells; host or cells: Jump-In HEK cells (membrane preparation)
Outline: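 Ki values were derived from dose-response inhibition of [3H]-ketanserin binding; nonspecific binding was set with 500 µmol/L ketanserin, and Kd was set for each membrane lot from Scatchard saturation plots. Incubation lasted 1.5 h at room temperature (25 °C). Bound radioligand was harvested on Tris-HCl (pH 7.4)-presoaked filters and counted.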

[3] = [3H]-Ketanserin, non-specific binding with 500 µmol/L Ketanserin, room temperature (25°C), 1.5 hours, read-out: h 5-HT2A Ki

T2 sequence (P28223 whole entry): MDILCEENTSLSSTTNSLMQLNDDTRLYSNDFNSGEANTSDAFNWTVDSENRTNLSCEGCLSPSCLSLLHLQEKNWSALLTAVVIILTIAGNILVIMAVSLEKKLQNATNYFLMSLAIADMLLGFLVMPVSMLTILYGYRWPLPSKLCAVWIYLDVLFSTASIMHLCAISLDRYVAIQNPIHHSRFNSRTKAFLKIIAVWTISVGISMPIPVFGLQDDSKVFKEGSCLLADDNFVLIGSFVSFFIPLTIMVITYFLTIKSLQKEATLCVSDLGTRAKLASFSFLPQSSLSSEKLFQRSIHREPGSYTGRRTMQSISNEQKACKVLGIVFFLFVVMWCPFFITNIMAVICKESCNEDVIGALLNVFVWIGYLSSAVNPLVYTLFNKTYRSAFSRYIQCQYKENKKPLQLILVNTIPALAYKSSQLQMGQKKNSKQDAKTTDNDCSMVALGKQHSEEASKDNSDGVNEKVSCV

| Ki [1] [nM] | Ki [2, 3] [nM] | Structure (SMILES) | Ki [2] [nM] |
| --- | --- | --- | --- |
| 0.278 | 0.496 | COCc1nc(C)c(-c2cc(Nc3ncc(-c4ccc(F)c(F)c4)cc3Cl)ncc2OCCO)c(C)n1 [Compound I-254] | – |
| 0.36 | 0.52 | COCc1nc(C)c(-c2cc(Nc3ncc(-c4ccc(F)c(Cl)c4)cc3Cl)ncc2OCCO)c(C)n1 [Compound I-255] | – |
| 0.322 | 0.5 | COCc1nc(C)c(-c2cc(Nc3ncc(-c4ccc(F)cc4F)cc3Cl)ncc2OCCO)c(C)n1 [Compound I-256] | – |
| 0.316 | 0.395 | COCc1nc(C)c(-c2cc(Nc3ncc(-c4cccc(F)c4)cc3Cl)ncc2OCCO)c(C)n1 [Compound I-257] | – |
| 0.301 | 0.933 | COCc1nc(C)c(-c2cc(Nc3ncc(-c4cc(F)cc(F)c4)cc3Cl)ncc2OCCO)c(C)n1 [Compound I-258] | – |
| 0.623 | 0.672 | COCc1nc(C)c(-c2cc(Nc3ncc(-c4cccc(F)c4F)cc3Cl)ncc2OCCO)c(C)n1 [Compound I-259] | – |
| 2.06 | 2.05 | COCc1nc(C)c(-c2cc(Nc3ncc(-c4cccc(C#N)c4)cc3Cl)ncc2OCCO)c(C)n1 [Compound I-260] | – |
| 0.482 | 0.608 | COCc1nc(C)c(-c2cc(Nc3ncc(-c4ccc(OC(F)F)cc4)cc3Cl)ncc2OCCO)c(C)n1 [Compound I-261] | – |
| 0.541 | 0.558 | COCc1nc(C)c(-c2cc(Nc3ncc(-c4cccc(C(F)F)c4)cc3Cl)ncc2OCCO)c(C)n1 [Compound I-262] | – |
| 0.318 | 0.577 | COCc1nc(C)c(-c2cc(Nc3ncc(-c4ccc(Cl)cc4F)cc3Cl)ncc2OCCO)c(C)n1 [Compound I-263] | – |
| 0.709 | 0.752 | COCc1ccc(-c2cnc(Nc3cc(-c4c(C)nc(COC)nc4C)c(OCCO)cn3)c(Cl)c2)cc1 [Compound I-264] | – |
| 0.47 | 0.972 | COCc1nc(C)c(-c2cc(Nc3ncc(-c4ccc(C#N)c(F)c4)cc3Cl)ncc2OCCO)c(C)n1 [Compound I-265] | – |
| 2.24 | 1.88 | COCc1nc(C)c(-c2cc(Nc3ncc(OC(C)(F)F)cc3Cl)ncc2OCCO)c(C)n1 [Compound I-266] | – |
| 0.589 | 0.958 | Cc1nc(C)c(-c2nc(Nc3ccc(OC(F)F)cc3)c(F)cc2OCCO)c(C)n1 [Compound I-268] | – |
| 2.85 | 0.295 | Cn1ncc(Br)c1-c1cc(Nc2ncc(OC(F)(F)F)cn2)cnc1OCCO [Compound I-269] | – |
| 2.74 | 0.938 | Cc1nc(C)c(-c2cc(Nc3ncc(OC(F)(F)F)cc3Cl)ncc2OCCO)c(C)n1 [Compound I-270] | – |
| 1.4 | 0.343 | COCc1nc(C)c(-c2cc(Nc3ccc(-c4ccc(F)cc4)cn3)ncc2OCCO)c(C)n1 [Compound I-272] | – |
| 0.395 | 0.309 | COCc1nc(C)c(-c2cc(Nc3ccc(-c4ccc(Cl)cc4)cn3)ncc2OCCO)c(C)n1 [Compound I-273] | – |
| 4.5 | 0.219 | Cn1ncc(Br)c1-c1cc(Nc2ncc(Cl)cn2)ncc1OCCO [Compound I-274] | – |
| 0.722 | 0.273 | Cn1ncc(Br)c1-c1cc(Nc2cc(C(F)(F)F)c(Cl)cn2)ncc1OCCO [Compound I-275] | – |

| Ki [1] [nM] | Ki [2, 3] [nM] | Structure (SMILES) | Ki [2] [nM] |
| --- | --- | --- | --- |
| 0.267 | 0.135 | Cn1ncc(Br)c1-c1nc(Nc2ccc(C(F)(F)F)cc2)c(F)cc1OCCO [Compound I-276] | – |
| 3.56 | 0.203 | Cn1ncc(Br)c1-c1nc(Nc2ccc(Cl)cn2)c(F)cc1OCCO [Compound I-278] | – |
| 1.94 | 0.306 | Cn1ncc(Br)c1-c1nc(Nc2ccc(C(F)(F)F)cn2)c(F)cc1OCCO [Compound I-279] | – |
| 1.58 | 0.312 | Cn1ncc(Br)c1-c1nc(Nc2ccc(OC(F)(F)F)cn2)c(F)cc1OCCO [Compound I-280] | – |
| 6.55 | 0.668 | Cn1ncc(Br)c1-c1cc(Nc2ncc(C3CC3)cn2)ncc1OCCO [Compound I-281] | – |
| 6.19 | 0.223 | Cc1cnn(C)c1-c1nc(Nc2ccc(Cl)cc2F)c(F)cc1OCCO [Compound I-282] | – |
| 2.41 | 0.267 | Cc1cnn(C)c1-c1nc(Nc2ccc(C(F)(F)F)cc2)c(F)cc1OCCO [Compound I-283] | – |
| 2.07 | 0.301 | Cn1ncc(Br)c1-c1cc(Nc2ccc(Cl)cn2)ncc1OCCO [Compound I-284] | – |
| 7.69 | 0.299 | Cn1ncc(Br)c1-c1cc(Nc2nc3ccccc3s2)ncc1OCCO [Compound I-285] | – |
| 3.22 | 0.6 | Cn1ncc(Br)c1-c1cc(Nc2ncc(OC(F)F)cn2)ncc1OCCO [Compound I-286] | – |
| 0.266 | 0.28 | Cn1ncc(Br)c1-c1cc(Nc2ncc(OC(F)(F)F)cc2F)ncc1OCCO [Compound I-287] | – |
| 0.78 | 0.387 | Cn1ncc(Br)c1-c1cc(Nc2ccc(OC(F)F)cn2)ncc1OCCO [Compound I-288] | – |
| 60.2 | 0.793 | Cn1ncc(Br)c1-c1nc(Nc2cnc(C(F)(F)F)nc2)c(F)cc1OCCO [Compound I-289] | – |
| 17.6 | 0.438 | Cn1ncc(Br)c1-c1nc(Nc2ccc(C(F)(F)F)nc2)c(F)cc1OCCO [Compound I-290] | – |
| 16.4 | 0.423 | Cn1ncc(Br)c1-c1cc(Nc2nc3ccccc3o2)ncc1OCCO [Compound I-291] | – |
| 2.4 | 0.385 | Cc1cnn(C)c1-c1cc(Nc2ncc(OC(F)(F)F)cc2F)ncc1OCCO [Compound I-292] | – |
| 3.67 | 0.259 | Cc1cnn(C)c1-c1cc(Nc2ccc(OC(F)(F)F)cn2)ncc1OCCO [Compound I-293] | – |
| 2.37 | 0.395 | Cn1ncc(Br)c1-c1nc(Nc2ccc(OC(F)F)cn2)c(F)cc1OCCO [Compound I-294] | – |
| 7.58 | 0.851 | Cc1nc(C)c(-c2cc(Nc3ccc(OC(F)(F)F)cn3)ncc2OCCO)c(C)n1 [Compound I-295] | – |
| 3.02 | 0.349 | Cn1ncc(Br)c1-c1cc(Nc2ncc(OC(F)(F)F)cn2)ncc1OCCO [Compound I-296] | – |

| Ki [1] [nM] | Ki [2, 3] [nM] | Structure (SMILES) | Ki [2] [nM] |
| --- | --- | --- | --- |
| 4.37 | 2.07 | Cc1nc(C)c(-c2cc(Nc3ccc(C4(C(F)(F)F)CC4)cn3)ncc2OCCO)c(C)n1 [Compound I-297] | – |
| 3.15 | 0.303 | Cc1nc(C)c(-c2cc(Nc3ccc(-c4ccccc4)cn3)ncc2OCCO)c(C)n1 [Compound I-298] | – |
| 0.352 | 0.271 | Cn1ncc(Br)c1-c1cc(Nc2ncc(OC(F)F)cc2F)ncc1OCCO [Compound I-299] | – |
| 7.17 | 1.33 | Cc1nc(C)c(-c2cc(Nc3ncc(OC(F)(F)F)cc3F)ncc2OCCO)c(C)n1 [Compound I-300] | – |
| 1.38 | 0.189 | Cn1ncc(Br)c1-c1cc(Nc2ccc(OC(C)(F)F)cn2)ncc1OCCO [Compound I-301] | – |
| 6.21 | 1.08 | Cc1nc(C)c(-c2cc(Nc3cc(OC(F)F)c(Cl)cn3)ncc2OCCO)c(C)n1 [Compound I-302] | – |
| 0.278 | 0.379 | Cc1nc(C)c(-c2cc(Nc3ccc(-c4ccc(C(F)(F)F)cc4)cn3)ncc2OCCO)c(C)n1 [Compound I-303] | – |
| 0.644 | 0.169 | Cn1ncc(Cl)c1-c1cc(Nc2ncc(OC(F)F)cc2F)ncc1OCCO [Compound I-304] | – |
| 0.585 | 0.188 | Cn1ncc(Cl)c1-c1cc(Nc2ncc(OC(F)(F)F)cc2F)ncc1OCCO [Compound I-305] | – |
| 5.67 | 1.27 | Cc1nc(C)c(-c2cc(Nc3ncc(C(F)(F)F)cc3F)ncc2OCCO)c(C)n1 [Compound I-306] | – |
| 0.715 | 0.221 | Cn1ncc(Br)c1-c1cc(Nc2ccc(OCC(F)(F)F)cn2)ncc1OCCO [Compound I-307] | – |
| 9.45 | 0.575 | Cc1nc(C)c(-c2cc(Nc3ccc(Oc4ccc(F)cc4)cn3)ncc2OCCO)c(C)n1 [Compound I-308] | – |
| 1.37 | 0.247 | Cc1nc(C)c(-c2cc(Nc3ccc(-c4ccc(F)cc4)cn3)ncc2OCCO)c(C)n1 [Compound I-309] | – |
| 0.608 | 0.194 | Cc1nc(C)c(-c2cc(Nc3ccc(-c4ccc(Cl)cc4)cn3)ncc2OCCO)c(C)n1 [Compound I-310] | – |
| 6.41 | 0.432 | Cn1ncc(Cl)c1-c1cc(Nc2ncc(C(F)(F)F)cn2)ncc1OCCO [Compound I-311] | – |
| 4.82 | 0.252 | Cn1ncc(Cl)c1-c1cc(Nc2ncc(OC(F)(F)F)cn2)ncc1OCCO [Compound I-312] | – |
| 1.38 | 0.198 | Cn1ncc(Cl)c1-c1cc(Nc2ccc(OCC(F)(F)F)cn2)ncc1OCCO [Compound I-313] | – |
| 3.68 | 0.902 | Cc1nc(C)c(-c2cc(Nc3ccc(-c4ccc(C(F)(F)F)cn4)cn3)ncc2OCCO)c(C)n1 [Compound I-314] | – |

| Structure (SMILES) | Ki [1] [nM] | Ki [2, 3] [nM] | Ki [2] [nM] |
| --- | --- | --- | --- |
| Cn1ncc(Br)c1-c1cc(Nc2ccc(OC(F)(F)F)cn2)ncc1OCCO [Compound I-277] | 0.217 | – | 0.186 |
